Publication PMC11040670, “Mechanistic and Kinetic Insights into Cellular Uptake of Biomimetic Dinitrosyl Iron Complexes and Intracellular Delivery of NO for Activation of Cytoprotective HO-1” (JACS Au, 2024)

Tests used:
Assay type in all cases: cell-based, human
[1] = tested on: MSC; experiment: Intracellular release of NO (DAF-FM fluorescence) in MSC; details: 100 μM DNIC–COOH or 2.5 μM DNIC–COOMe
Method: (§1) Intracellular release of NO by DNIC–COOH was validated using the fluorescence probe 4-amino-5-methylamino-2′,7′-difluorofluorescein diacetate (DAF-FM) in combination with fluorescence analysis techniques. Briefly, the MSC cells (or N2a and HCEC cells) were seeded onto a 96-well black plate at a density of 6 × 10^3 cells/well (or 1 × 10^4 cells/well for N2a and 8 × 10^3 cells/well for HCEC cells) and incubated at 37 °C overnight. On the next day, the MSC cells were first treated with 10 μM of DAF-FM (or 5 μM for N2a and HCEC cells) and incubated at 37 °C for 0.5 h. […] Fluorescence intensity of the cells was then recorded using a microplate reader (SpectraMax iD3, Molecular Devices, San Jose, CA) with an excitation wavelength at 485 nm and an emission wavelength at 525 nm. Three independent experiments were executed to measure the time-dependent change of average fluorescence intensity. Time-dependent change of average fluorescence intensity for the MSC/N2a/HCEC cells with sequential treatment of DAF-FM (10 μM for MSC cells, 5 μM for N2a cells, 5 μM for HCEC cells; 0.5 h) and DNIC–COOMe (2.5 μM for MSC cells, 10 μM for N2a cells, 1 μM for HCEC cells) was determined in a similar manner. […]

[2] = tested on: MSC; experiment: Cytoprotection of MSC against H2O2 oxidative stress (CCK-8, live/dead); details: MSC pretreated 8 h (100 μM DNIC–COOH or 2.5 μM DNIC–COOMe), then 250 μM H2O2 24 h
Method: Cell viability study of MSC, N2a, and HCEC cells with or without the treatment of DNIC–COOH was performed using a Cell Counting Kit-8 (IMT Formosa New Materials Co., Ltd., Taiwan) according to the manufacturer’s protocol. Briefly, cells were seeded into a 96-well plate at a density of 4 × 10^3 cells/well for MSC, 1 × 10^4 cells/well for N2a, and 8 × 10^3 cells/well for HCEC, respectively, and incubated overnight. On the next day, cells were treated with DNIC–COOH at different concentrations and incubated for 24 h. The culture medium was then removed before the cells were washed with DPBS. After addition of fresh medium containing CCK-8 solution to the cells and incubation for 1–3 h, the absorbance at 450 nm was then measured on a microplate reader (SpectraMax iD3, Molecular Devices, San Jose, CA) with a reference wavelength of 650 nm. […]
To investigate the capacity of DNIC preconditioning to protect the MSC cells against elevated oxidative stress, cells were pretreated with 2.5 μM of DNIC–COOMe or 100 μM of DNIC–COOH for 8 h before being incubated with 250 μM H2O2 for another 24 h. Cell viability was evaluated by live/dead staining or CCK-8 assay. In a similar manner, DNIC-induced cytoprotective effect in HCECs was evaluated through pretreatment of 1 μM of DNIC–COOMe or 75 μM of DNIC–COOH for 24 h.

[3] = tested on: HCEC; experiment: Intracellular release of NO (DAF-FM fluorescence) in HCEC; details: 75 μM DNIC–COOH or 1 μM DNIC–COOMe
Method: as §1

COC(=O)CC[SH]1[Fe]([N]=O)([N]=O)[SH](CCC(=O)OC)[Fe]1([N]=O)[N]=O (stereo not drawn) [DNIC–COOMe, [(NO)2Fe(μ-SCH2CH2COOCH3)2Fe(NO)2]]
tmax for intracellular release of NO [1]: 1 h | survival rate [2]: 35.8% | tmax for intracellular release of NO [3]: 1 h

O=[N][Fe]1([N]=O)[SH](CCC(=O)O)[Fe]([N]=O)([N]=O)[SH]1CCC(=O)O (stereo not drawn) [DNIC–COOH, [(NO)2Fe(μ-SCH2CH2COOH)2Fe(NO)2]]
tmax for intracellular release of NO [1]: 4 h | survival rate [2]: 58.7% | tmax for intracellular release of NO [3]: 6 h
